Assays:
[1] = test system: influenza A; assay: Antiviral activity on influenza A; assay type: cell-based; details: Influenza A virus; read-out: EC50 range
Source text: (§1) The assay for measuring influenza A has been described in general in Antimicrob. Agents Chemother. 2015; 59:2062 and applied to compounds of the present invention furnished the following representative results: […]

[2] = Cell viability assay accompanying the SARS-CoV-2 assay; assay type: cell-based; details: cell viability assay of the SARS-CoV-2 test
Source text: (§2) The assay for viral replication (YFP) and the cell viability assay has been described in general in Pathogens 2021; 10:1076 and applied to compounds of the present invention furnished the following results: […]

[3] = Microsomal stability, mouse liver microsomes; details: male, CD-1, mouse, mouse liver microsomes 10003 CD-1, male (Corning), 60 min, Example 100 experiment
Experimental: (§3) The conversion to the metabolite was monitored by HPLC-MS/MS. Verapamil served as positive control.
The metabolism was monitored by HPLC-MS/MS.
Verapamil served as positive control. The intrinsic clearance was calculated from the measured remaining compound values.

[4] = test system: SARS-CoV-2; assay: Antiviral activity on SARS-CoV-2, viral replication (YFP) assay; assay type: cell-based; details: Severe acute respiratory syndrome coronavirus 2, read-out: EC50 range
Source text: as §2

[5] = test system: respiratory syncytial virus (RSV, A2 strain expressing eGFP, Long strain or RSV-B); assay: Antiviral activity on RSV in HEp-2 cells; assay type: cell-based; details: human respiratory syncytial virus, HEp-2, 45 h, read-out: IC50 (50% inhibitory concentration)
Experimental: One day before infection, 20,000 HEp-2 cells per well were seeded in a 96-well plate. Example 100 or DMSO vehicle controls were applied on cell monolayers at indicated concentrations and infected immediately after treatment with respiratory syncytial virus (RSV, A2 strain expressing eGFP, Long strain or RSV-B) at MOI 0.001. Cells were incubated for 45 h at 37° C. and 5% CO2. RSV infection was quantified either by counting green fluorescent infected cells using CTL-Immunospot reader or by ICC staining using RSV-targeting antibody. Shown as mean values of triplicate wells normalized to the corresponding vehicle-treated controls ±SD.

[6] = Mouse pharmacokinetics, oral or intravenous cassette dosing; assay type: in vivo, mice (C57BL/6J); details: C57BL/6J, whole blood, 3 female mice, 5 mg/kg oral cassette, sampling 0.5-24 h; for AUC(0-t): read-out: AUC0-24 h
Experimental: The pharmacokinetics of the compounds of the present invention was evaluated in 3 male and 3 female mice (C57BL/6J, 8 week old) after oral or intravenous cassette dosing to assess the oral bioavailability. Dose was 5 mg/kg (oral) and 1 mg/kg (intravenous), application volume was 5 mL/kg (oral) and 0.5 mL/kg (intravenous), vehicle was 5% solutol, 95% NaCl solution (at 0.9% saline concentration) for oral and 5% solutol, 5% Ethanol, 90% NaCl solution (at 0.9% saline concentration) for intravenous. At each designated time point (0.25, 0.5, 1, 2, 4, 8 and 24 h after dosing), 20 μL whole blood were collected from the tail vein into Li-heparin tubes, frozen on dry ice within 1-2 minutes of sampling and stored at −20° C. until processed for LC-MS analysis. The obtained data is as follows:
(§4) The pharmacokinetics of additional compounds of the present invention was evaluated in 3 female mice (C57BL/6J, 8 week old) after oral cassette dosing. Dose was 5 mg/kg, application volume was 5 mL/kg, vehicle was 5% solutol, 95% NaCl solution (at 0.9% saline concentration). At each designated time point (0.5, 1, 2, 4, 8 and 24 h after dosing), 20 μL whole blood were collected from the tail vein into Li-heparin tubes, frozen on dry ice within 1-2 minutes of sampling and stored at −20° C. until processed for LC-MS analysis. The obtained data is as follows:
as §4, with “(0.25, 0.5,” for “(0.5,”, “4 and” for “4,”, “8” for “8 and 24”, “analysis.” for “analysis. The obtained data is as follows:”

[7] = molecular target: T1, RORγt (Homo sapiens, UniProt P51449); assay: Indigo Biosciences Human RAR-related Orphan Receptor, Gamma Reporter Assay (in vitro inhibition of RORγt); assay type: cell-based; details: RORγt reporter cells, luciferase readout, 22-24 h incubation; read-out: IC50 range
T1 sequence (P51449 269-508 limits assumed): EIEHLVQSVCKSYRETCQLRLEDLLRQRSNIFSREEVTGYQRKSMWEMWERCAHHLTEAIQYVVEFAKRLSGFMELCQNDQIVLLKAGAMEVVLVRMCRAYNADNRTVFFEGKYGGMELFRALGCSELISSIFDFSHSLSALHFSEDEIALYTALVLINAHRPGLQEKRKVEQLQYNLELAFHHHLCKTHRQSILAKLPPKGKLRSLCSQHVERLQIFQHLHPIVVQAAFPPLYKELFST
Experimental: The in vitro inhibition of RORγt was measured using Indigo Biosciences Human RAR-related Orphan Receptor, Gamma Reporter Assay System (Product #IB304001-32) as described in the technical manual. In brief, 200 μL of Reporter Cells is dispensed into wells of the assay plate and preincubated for 4-6 h. Following the pre-incubation period, culture media are discarded and 200 µL/well of the prepared 1×-concentration treatment media are added. Following 22-24 h incubation, treatment media are discarded and Luciferase Detection Reagent is added. The intensity of light emission (in units of ‘Relative Light Units’; RLU) from each assay well is quantified using a plate-reading luminometer. Average values of RLU were determined for each treatment concentration. Non-linear regression analyses were performed and IC50 values determined using GraphPad Prism software. Provided inverse-agonists ursolic acid served as positive control.

[8] = CC50 accompanying the influenza A assay; assay type: cell-based; details: influenza A test
Source text: as §1

[9] = Microsomal stability, rat liver microsomes; details: rat liver microsomes 9078001 (Corning), 60 min, Example 102 experiment
Experimental: as §3
(§5) The metabolism was monitored by HPLC-MS/MS. Verapamil served as positive control. The intrinsic clearance was calculated from the measured remaining compound values.

[10] = Microsomal stability, human liver microsomes; details: both
Experimental: as §3, §5, §5

Compound	EC50 [1] [nM]	CC50 [2] [nM]	microsomal CLint [3] [µL/min/mg]	EC50 [4] [nM]	IC50 [5] [nM]	Cmax [6] [ng/mL]	half-life [6] [h]	AUC(0-t) [6] [ng·h/mL]	IC50 [7] [nM]	CC50 [8] [nM]	microsomal CLint [9] [µL/min/mg]	microsomal CLint [10] [µL/min/mg]
[2H]C([2H])([2H])OC(=O)c1c(-c2c(F)cccc2Cl)noc1-c1cnn(-c2cccc(Cl)c2)c1C(F)(F)F [Example 100, Methyl-d3 3-(2-chloro-6-fluorophenyl)-5-(1-(3-chlorophenyl)-5-(trifluoromethyl)-1H-pyrazol-4-yl)isoxazole-4-carboxylate]	< 100	50000	24.4	< 100	< 50	50.5	6.4	201	< 10	82000		
[2H]C([2H])(OC1CC1)c1c(-c2c(F)cccc2Cl)noc1-c1cnn(-c2cccc(Cl)c2)c1C(F)(F)F [Example 102, 3-(2-Chloro-6-fluorophenyl)-5-(1-(3-chlorophenyl)-5-(trifluoromethyl)-1H-pyrazol-4-yl)-4-(cyclopropoxymethyl-d2)isoxazole]	100 to 1000	17000		< 100		272	7.2	970	10 to 100	> 100000	29.4	6.7

Source: US20250243190A1, “NEW DEUTERATED RORGAMMA/RORGAMMAT INVERSE AGONISTS” (IMMUNIC AG, priority 2022, published 2025)
